Reference: PMC7284870, “Antimicrobial Peptides from Rat-Tailed Maggots of the Drone Fly Eristalis tenax Show Potent Activity against Multidrug-Resistant Gram-Negative Bacteria” (Microorganisms, 2020)
In brackets after ≈: the same amount, converted by molar mass.

Tests used:
P. aeruginosa ATCC 27853 = experiment: Checkerboard assay EtDip with colistin; format: cell-based, Pseudomonas aeruginosa; details: CAMB and + 150 mM NaCl; not in the presence of CaCl2
Protocol: The interactions between pairs of compounds were analyzed using checkerboard assays in a 384-well microtiter plate with an assay volume of 20 µL. Immediately before the test runs, the bacterial cultures were diluted in CAMB to a density of 5 × 10^5 cells/mL. The two compounds for combinatorial testing were arrayed as 10-fold concentrated serial dilutions with respect to the final concentration, vertically for one compound and horizontally for the other, in the same 384-well microplate. Subsequently, we transferred 2-µL aliquots to new 384-well microtiter plates, and growth inhibition in each well was determined, as described for the MIC values above. Fractional inhibitory concentration (FIC) and FICindex values for each combination were calculated using the following formulae, where a
FICindex ≤0.5 indicates synergy and a FICindex >4 indicates antagonism.
FIC for compound A = MIC of compound A in combination/MIC of compound A
FIC for compound B = MIC of compound B in combination/MIC of compound B

reference strains = experiment: MIC, several reference strains; format: cell-based; details: reference strains of Table 2
Protocol: (§1) The strains that were used in this study (Table 2 and Table S1) were cultivated at 37 °C in cation-adjusted Mueller–Hinton broth (CAMB) in Erlenmeyer flasks, or on the same medium with agar in Petri dishes. Exceptionally, Mycobacterium smegmatis was cultivated at 37 °C in brain heart infusion (BHI) medium that was supplemented with 1% Tween-80 in Erlenmeyer flasks, or on the same medium lacking detergent but with agar in Petri dishes. Strains listed with Robert Koch Institute (RKI) strain numbers are clinical isolates from the RKI strain collection originating from hospitalized patients in Germany. The remaining strains originated from the Sanofi strain collection and they were originally purchased from the American Type Culture Collection or the German Collection of Microorganisms and Cell Cultures. Meropenem/colistin-resistant strains were maintained, as described above, with the appropriate antibiotic added at levels below the minimal inhibitory concentration (MIC).
(§2) The MIC values were determined in 384-well microtiter plates with an assay volume of 20 µL. […] The growth of M. smegmatis was measured using the BacTiter-Glo luminescence test system (Promega, Madison, WI, USA). The growth of the other species was determined by visual inspection of the microtiter plate and turbidimetry based on the optical density at 600 nm (OD600). […]

[1] = tested on: Enterobacter aerogenes clinical isolate (1); experiment: MIC, clinical isolates; format: cell-based; details: Klebsiella aerogenes; Table S1, RKI 1026/14-1
Protocol: as §1
The MIC values were determined in 384-well microtiter plates with an assay volume of 20 µL. Immediately before each assay, the cultures of test organisms (bacteria grown for 18 h, Candida albicans and M. smegmatis grown for 48 h) were diluted with the appropriate medium to a density of 1 × 10^6 cells/mL (C. albicans), 1 × 10^5 cells/mL (M. smegmatis) or 5 × 10^5 cells per mL (other species). […] We transferred 2-µL aliquots from this dilution series to new 384-well microtiter plates while using a CyBio-Well 384-channel automated pipettor (Analytic Jena, Jena, Germany) and added 18 µL of the diluted suspension of each test species using a Viafill reagent dispenser (Integra), thus reducing the final peptide concentration 10-fold to the range 1024–0.03125 µg/mL. […] The growth of M. smegmatis was measured using the BacTiter-Glo luminescence test system (Promega, Madison, WI, USA). The growth of the other species was determined by visual inspection of the microtiter plate and turbidimetry based on the optical density at 600 nm (OD600). The MIC was defined as the peptide concentration at which no bacterial growth was observed. We supplemented the test medium with either 150 mM NaCl or 1.25 mM CaCl2 to represent monovalent and divalent cations to simulate physiological conditions.

[2] = tested on: Seratia fonticola clinical isolate (1); experiment: MIC, clinical isolates; format: cell-based, Serratia fonticola; details: Table S1, RKI 517/16
Protocol: as §1, §2

Compound	interaction with colistin (FICindex) (P. aeruginosa ATCC 27853)	activity against the test strains (reference strains)	MIC [1]	MIC [2]
QFNMQGGGSPRQGFDVNANARFPIWQSQNARNSVHGTASYAQHLGGPYGNSRPNFGGGLQFT [EtDip, diptericin-like peptide of Eristalis tenax]	Synergistic interactions	no activity	–	–
C[C@@H](O)[C@H]1C(=O)N2C(C(=O)O)=C(S[C@@H]3CN[C@H](C(=O)N(C)C)C3)[C@H](C)[C@H]12 [MEM, meropenem]	–	–	16 µg/mL (≈ 41.7 µM)	32 µg/mL (≈ 83.4 µM)
